Reference: PubChem BioAssay AID2202554 (NIEHS Division of Translational Toxicology (DTT))
Results filed as inconclusive are left out. The source made the active and inactive calls. How the calls were made is not given here.

These compounds were tested on S. typhimurium/E. coli reverse mutation, colony counts (assay: Bacterial reverse mutation test (aka Ames test) summary data).
Outline: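 S. typhimurium his⁻ strains (TA97–TA1538) and E. coli WP2 uvrA pKM101 trp⁻, dosed over a range with or without rat, hamster or mouse liver S9. Preincubated 20 min at 37° C (or plate incorporation), plated in agar, incubated usually two days. Revertant colonies counted against negative controls.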

SMILES	outcome
C=CC1CO1 (stereo unspecified)	active; positive
O=c1[nH]c(=O)n(Cl)c(=O)n1Cl	inactive; negative
Cc1cccc(C)c1[N+](=O)[O-]	active; weakly positive
ClC1(Cl)C2(Cl)C3(Cl)C4(Cl)C(Cl)(Cl)C5(Cl)C3(Cl)C1(Cl)C5(Cl)C24Cl (stereo unspecified)	inactive; negative
C=CC(=O)NC(C)(C)CC(C)=O	inactive; negative
c1ccc2c(c1)ccc1ccccc12	active; weakly positive
CCN(CC)c1ccc2c(C)cc(=O)oc2c1	inactive; negative
OC[P+](CO)(CO)CO	inactive; negative
CC1(C)S[C@@H]2[C@H](NC(=O)[C@H](N)c3ccccc3)C(=O)N2[C@H]1C(=O)O	inactive; negative
N#CCCC#N	inactive; negative
NCCNc1cccc2ccccc12	active; positive
CCCCCCCCOc1ccc(C(=O)O)cc1	inactive; negative
CCCCCCOc1ccc(O)cc1	inactive; negative
Cc1ccc(N)cc1[N+](=O)[O-]	active; positive
CCCCCCCCOC(=O)c1ccccc1C(=O)OCCCCCCCC	inactive; negative
NCCCCCCCCCCC(=O)O	inactive; negative
O=C(O)C(F)(F)C(F)(F)C(F)(F)C(F)(F)C(F)(F)C(F)(F)C(F)(F)C(F)(F)C(F)(F)C(F)(F)C(F)(F)F	inactive; negative
ClC1=C(Cl)[C@]2(Cl)[C@H]3[C@H]([C@@H]4C=C[C@H]3C4)[C@@]1(Cl)C2(Cl)Cl	inactive; negative
CC(C)O	inactive; negative
Cc1c[nH]c(=S)[nH]c1=O	inactive; negative
COc1cc(-c2ccc(N=Nc3cc(S(=O)(=O)O)c4ccccc4c3O)c(OC)c2)ccc1N=Nc1cc(S(=O)(=O)O)c2ccccc2c1N	inactive; negative
CC(C)=CCCC(C)CCO (stereo unspecified)	inactive; negative
O=C1c2ccccc2C(=O)c2ccccc21	active; positive
OCC(CO)(CBr)CBr	active; positive
CC(C)[C@@H]1CC[C@@H](C)C[C@H]1O	inactive; negative
O=C(O)CNC(=O)c1ccc([N+](=O)[O-])cc1	active; positive

SMILES	outcome
CCN(Cc1ccccc1)c1ccccc1	inactive; negative
ClCCl	active; positive
c1ccc(N(c2ccccc2)c2ccccc2)cc1	inactive; negative
O=[N+]([O-])c1ccc(Cl)cc1	active; positive
Clc1ccc(Cl)cc1	inactive; negative
C=CC(=O)OCC(CC)(COC(=O)C=C)COC(=O)C=C	inactive; negative
CNC(C)Cc1ccccc1 (stereo unspecified)	inactive; negative
C1CCCCC1	inactive; negative
CC[C@H]1OC(=O)[C@H](C)[C@@H](O[C@H]2C[C@@](C)(OC)[C@@H](O)[C@H](C)O2)[C@H](C)[C@@H](O[C@@H]2O[C@H](C)C[C@H](N(C)C)[C@H]2O)[C@](C)(O)C[C@@H](C)C(=O)[C@H](C)[C@@H](O)[C@]1(C)O	inactive; negative
O=[N+]([O-])C(Br)(CO)CO	inactive; negative
Nc1ccccc1N	active; positive
C=C(Cl)Cl	inactive; negative
C=CC#N	active; positive
O=[N+]([O-])c1cc([As](=O)(O)O)ccc1O	inactive; negative
Cc1c(O)cccc1C(=O)N[C@@H](CSc1ccccc1)[C@H](O)CN1C[C@H]2CCCC[C@H]2C[C@H]1C(=O)NC(C)(C)C	inactive; negative
CCCCCCCCCCCCOS(=O)(=O)O	inactive; negative
CCCc1cc(=O)[nH]c(=S)[nH]1	inactive; negative
C=CC(=O)NCO	inactive; negative
Nc1ccc(-c2ccc(N)cc2S(=O)(=O)O)c(S(=O)(=O)O)c1	inactive; negative
Cc1ccc(C#N)cc1	inactive; negative
O=[N+]([O-])c1cccc(O)c1	active; weakly positive
N[C@@H](Cc1c[nH]c2ccccc12)C(=O)O	inactive; negative
Cc1cc(C)nc(NS(=O)(=O)c2ccc(N)cc2)n1	inactive; negative
CCOc1ccc(NC(C)=O)cc1[N+](=O)[O-]	active; positive
Nc1nccs1	active; positive
CCOCCOC(=O)C=Cc1ccc(OC)cc1	inactive; negative

SMILES	outcome
CNC[C@H](O)c1ccc(O)c(O)c1	active; weakly positive
C=C(C)C(=O)OCCCC	inactive; negative
CC(=O)C=CC1=C(C)CCCC1(C)C	inactive; negative
NCP(=O)(O)O	inactive; negative
COC(=O)c1ccc(C=O)cc1	inactive; negative
CCc1c(Br)c(Br)c(Br)c(Br)c1Br	inactive; negative
CC(C)NC(C)C	inactive; negative
Cc1cc(C)c(S(=O)(=O)O)cc1N=Nc1cc(S(=O)(=O)O)c2ccccc2c1O	inactive; negative
CCC1NC(=O)c2cc(S(N)(=O)=O)c(Cl)cc2N1 (stereo unspecified)	inactive; negative
O=C1C(c2[nH]c3ccccc3c2O)=Nc2ccccc21	active; positive
C=CCNC(N)=O	active; positive
CC1CCC2CC1C2(C)C (stereo unspecified)	inactive; negative
CC(C)(OO)c1ccccc1	active; positive
O=[N+]([O-])c1ccc2c(c1)Cc1cccc([N+](=O)[O-])c1-2	active; positive
Cn1c(-c2ccccc2)c(N=Nc2scc[n+]2C)c2ccccc21	active; positive
CCCC(=O)c1cc(O)c(O)cc1O	active; positive
Nc1ccc(N)c2ccccc12	active; positive
CN(C)CCCN	inactive; negative
CCCCNC(=O)NS(=O)(=O)c1ccc(C)cc1	inactive; negative
CCCCC(CC)COP(OCC(CC)CCCC)OCC(CC)CCCC (stereo unspecified)	inactive; negative
CC1CC(=O)O1 (stereo unspecified)	active; positive
OC(c1ccc(Cl)cc1)(c1ccc(Cl)cc1)c1ccc(Cl)cc1	inactive; negative
CN1C[C@H](C(=O)N[C@]2(C)O[C@@]3(O)[C@@H]4CCCN4C(=O)[C@H](Cc4ccccc4)N3C2=O)C=C2c3cccc4[nH]cc(c34)C[C@H]21	inactive; negative
O=C(O)C(Cl)Br (stereo unspecified)	active; positive
COc1ccc(C)cc1N	active; positive
Cc1ccccc1C(=O)O	inactive; negative

SMILES	outcome
[Na+]	inactive; negative
O=Cc1ccc(Cl)c(Cl)c1	inactive; negative
NCN	active; positive
C=CCCC	inactive; negative
C=C(C#N)C(=O)OC	active; positive
Nc1c(Br)cc(Br)c2c1C(=O)c1ccccc1C2=O	active; positive
COC(=O)c1ccc(C)cc1	inactive; negative
CC1OC(C)OC(C)O1 (stereo unspecified)	active; positive
O=C1NC(=O)C(O)(O)C(=O)N1	inactive; negative
CCNc1nc(Cl)nc(NC(C)C)n1	inactive; negative
OCC1CO1 (stereo unspecified)	active; positive
C1CCCC1	inactive; negative
O=C1O[C@H](CO)[C@@H](O)[C@H](O)[C@H]1O	inactive; negative
COC=O	inactive; negative
Nc1ncn[nH]1	inactive; negative
COC(=O)CCCCC(=O)OC	inactive; negative
C=CC(=O)OCCOCCOC(=O)C=C	inactive; negative
Nc1ccc(Cl)cc1[N+](=O)[O-]	active; positive
O=c1c(O)c(-c2ccc(O)c(O)c2)oc2cc(O)cc(O)c12	active; positive
C=CC(=O)OC	inactive; negative
CCC(=O)C=CC1C(C)=CCCC1(C)C (stereo unspecified)	inactive; negative
CC(C)=CCC1CCCC1=O (stereo unspecified)	inactive; negative
CCCCCO	inactive; negative
CC=O	inactive; negative
COc1c(Cl)c(Cl)c(Cl)c(Cl)c1Cl	active; positive
CCCCC(CC)COP(=O)(OCC(CC)CCCC)OCC(CC)CCCC (stereo unspecified)	inactive; negative

SMILES	outcome
Nc1ccc(Cc2ccc(N)cc2)cc1	active; positive
NC(=O)NC(N)=O	active; positive
CC(=O)C(C)O (stereo unspecified)	inactive; negative
O=Cc1cccc(Br)c1	inactive; negative
CC(=O)NNC(=O)c1ccccn1	inactive; negative
O=CNc1nc(-c2ccc([N+](=O)[O-])o2)cs1	active; positive
Cc1cc2nc3c(=O)[nH]c(=O)nc-3n(C[C@H](O)[C@H](O)[C@H](O)CO)c2cc1C	inactive; negative
CCCCC(CC)CN (stereo unspecified)	inactive; negative
COC(C)=O	inactive; negative
O=C/C=C/O	inactive; negative
O=C1c2c(O)ccc([N+](=O)[O-])c2C(=O)c2c([N+](=O)[O-])ccc(O)c21	active; positive
COC(=O)/C=C/C(C)=C\C=C\C(C)=C\C=C\C=C(C)\C=C\C=C(C)\C=C\C(=O)O	active; positive
COCC1CCC(CO)CC1 (stereo unspecified)	inactive; negative
CN1CCC[C@H]1c1cccnc1	inactive; negative
CCCCCC[C@@H](O)C/C=C\CCCCCCCC(=O)O	inactive; negative
CCn1cc(C(=O)O)c(=O)c2ccc(C)nc21	active; weakly positive
O=[N+]([O-])c1ccc(Cl)cc1Cl	active; positive
COc1ccc(C(Cl)=C(c2ccc(OC)cc2)c2ccc(OC)cc2)cc1	inactive; negative
CC(C)[N+](=O)[O-]	active; positive
Nc1ccccc1-c1ccccc1	active; positive
CCOC(=O)c1ccccc1N	inactive; negative
NC(=S)NNC(N)=S	inactive; negative
